These results are taken from patent US12492163B2, “9H-fluorene derivatives or their pharmaceutically acceptable salts” (priority 2020, dated 2025).

The target of data set [1] is Recombinant human Aβ1-42 peptide (Homo sapiens (Human), UniProt P05067). As to the kind of experiment: Thioflavin T test, antiaggregation activity against beta-amyloid. To be noted: 10 μM test compound, 1.5 μM Aβ1-42; read-out: inh. Aβ aggr. % inh. The data set is classed as biochemical. The essentials: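 Aβ1-42 (1.5 μM final, HFIP-pretreated) aggregated in HEPES pH 7.4 with 150 mM NaCl, thioflavin T 10 μM, 3% DMSO, compound 10 μM. Fluorescence (ex 440/em 490 nm) read every 300 s with mixing; plateau values minus t=0 give % inhibition; IC50 by non-linear regression against concentration.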

Data set [2] in a line: Pharmacokinetic parameters in plasma and brain of mice. The data set is classed as in vivo. The method, then:
The research was carried out at the Department of Toxicology and Military Pharmacy, Faculty of Military Health Sciences in Hradec Kralove, Defense University in Brno in the Czech Republic, at the Biomedical Research Center and at the Department of Clinical Biochemistry of the University Hospital Hradec Kralove in the Czech Republic. All procedures were carried out under the supervision of the Ethics Committee of the Faculty of Military Health Sciences (No. 20/19; MO 215611/2019-684800). Male and female ICR-CD1 strain of domestic mice (Mus musculus) (body weight approx. 20-25 g) were used in the research. The animals were kept in standard, appropriately sized cages, divided into groups of a maximum of 8 animals. The animals in the test groups were administered the test compound intraperitoneally (doses in the acute toxicity study: 10, 20, 40 and 60 mg/kg, dose in the study of pharmacokinetic parameters 10 mg/kg). Control groups received 1% Tween 80.
After administration of compound JT-3 at the MTD dose (10 mg/kg), animals were subjected to deep terminal sedation at 0, 3, 5, 10, 20, 30, 45, 60, 90, 120, 240 and 360 minutes after dosing (six animals per time interval; n=6) and their blood was drawn by cardiac puncture into heparinized tubes. Samples were centrifuged (3000×g, 10 minutes, 10° C.). Plasma was stored at −80° C. until analyzed by HPLC. Blood in the cerebral vessels would interfere with the actual concentration levels in the brain tissue, therefore the animals were perfused transcardially with physiological saline (0.9% NaCl) for 5 minutes (10 mL/min). After perfusion, the skull was opened and the brain was carefully removed and stored at −80° C. until analyzed by HPLC.
Quantitative analyzes of JT-3 in plasma and brain were performed by HPLC. The method has been fully validated for plasma and partially validated for brain homogenate according to the EMA and FDA guidelines for the validation of bioanalytical methods [Research, C, Anonymous].

Data set [3] concerns Albino Swiss CD-1 mice. As to the kind of experiment: Spontaneous motor activity test. The data set is classed as in vivo. The method, then: The research was conducted at the Department of Pharmacodynamics, Faculty of Pharmacy, Jagiellonian University in Krakow. All procedures were approved by the 1st and 2nd Local Ethics Committee for Animal Experiments in Krakow (consent no. 53/2017 and 250/2019) and were performed in accordance with the applicable European Union regulation (86/609/EEC). Males of two different strains of domestic mice (Mus musculus) were used in the study: Albino Swiss CD-1 (body weight approx. 20-24 g, age approx. 6 weeks) and C57BL/6J mice (body weight approx. 18-22 g, age approx. 6 weeks). The CD-1 strain was used for the passive avoidance, spontaneous mobility and rotating rod tests, while the C57BL/6J mice were used for the Morris water maze and the Barnes' maze. The animals were kept in standard, appropriately sized cages, divided into groups with a maximum of 10 animals. […]
In this test, the effect of compound JT-3 on the spontaneous motor activity of mice was investigated. […] The apparatus recorded the number of horizontal and vertical movements during the 60-minute test. The mice were put into the actometer, the measurement lasted for 1 hour, during which the camera counted the number of times the light beams were crossed, i.e. motor activity. […]

Data set [4] deals with Albino Swiss CD-1 mice. As to the kind of experiment: Rotarod test. The data set is classed as in vivo. As for the experimental part: The research was conducted at the Department of Pharmacodynamics, Faculty of Pharmacy, Jagiellonian University in Krakow. All procedures were approved by the 1st and 2nd Local Ethics Committee for Animal Experiments in Krakow (consent no. 53/2017 and 250/2019) and were performed in accordance with the applicable European Union regulation (86/609/EEC). Males of two different strains of domestic mice (Mus musculus) were used in the study: Albino Swiss CD-1 (body weight approx. 20-24 g, age approx. 6 weeks) and C57BL/6J mice (body weight approx. 18-22 g, age approx. 6 weeks). The CD-1 strain was used for the passive avoidance, spontaneous mobility and rotating rod tests, while the C57BL/6J mice were used for the Morris water maze and the Barnes' maze. The animals were kept in standard, appropriately sized cages, divided into groups with a maximum of 10 animals. The animals in the study groups in the learning phase were intraperitoneally administered the test compound 1 h before the start of the experiments (doses in the preliminary test, i.e. in the passive avoidance test: 10, 30 and 60 mg/kg), and 30 minutes later, 1 mg/kg of scopolamine subcutaneously. Two control groups were used in the tests to assess the procognitive activity of JT-3—one of them received saline and the other saline and scopolamine.
Before the experiment, the mice were adequately trained (3 days, rod revolving at 18 rpm). The device consists of a rod set in a horizontal position. It is 75 cm long, divided into 4 tracks, and is set in rotation by an electric motor. This metal rod is placed 50 cm above the table to discourage mice from jumping off it. On the day of the actual test, 24 h after the animals' last training, the mice were placed sequentially on the bar for 60 s (for each rotation speed). The rod rotation speed was set to 6, 18, and 24 rpm, respectively. The inability of the mice to stay on the rod for 60 s was considered a disorder of motor coordination.
Background: The rotarod test checks motor coordination on a turning rod.

Chain of Recombinant human Aβ1-42 peptide (P05067 672-713): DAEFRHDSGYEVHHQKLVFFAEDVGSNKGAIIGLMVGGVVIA

The Tmax is the time from dosing to the highest level. By Cmax is commonly meant the maximum level reached in the sampled fluid or tissue. In general, MRT refers to the average time that molecules of a dose stay in the body. As to `O[C@H](CNCC1CC1)[C@H](Cc1ccccc1)NC1c2ccccc2-c2ccccc21` [JT-3, (2R,3S)-3-((9H-fluoren-9-yl)amino)-1-((cyclopropylmethyl)amino)-4-phenylbutan-2-ol], in data set [1], the inhibition at 10 µM was 79%. The Vz in data set [2] (both, ICR-CD1, mouse, in vivo, ip, 10 mg/kg) is on record as 40.93 ± 4.95 L/kg. Moreover, the Tmax in data set [2] (brain, mice, 10 mg/kg i.p.) is 0.9167 ± 0.113 h; in data set [2] (plasma, mice, 10 mg/kg i.p.), 0.3888 ± 0.0828 h. For the same molecule, in data set [2] (mice, 10 mg/kg i.p.), the “time of maximum concentration after administration” value turned out to be 60 min. Moreover, in data set [2] (mice, 10 mg/kg i.p., higher concentrations in the CNS than in plasma), the “penetration into the brain” value is “Very good penetration”. In data set [2] (plasma, elimination phase, mice, 10 mg/kg i.p.), this molecule returned a Half-life of 2.6907 ± 0.2375 h. Besides, the peak concentration (Cmax) is 430.09 ± 57.94 ng/mL in data set [2] (plasma, mice, 10 mg/kg i.p.) and 833 ± 62.3 ng/g in data set [2] (sexes, ICR-CD1, mouse, in vivo, ip, 10 mg/kg). For the same molecule, the MRT in data set [2] (plasma, mice, 10 mg/kg i.p.) is 3.6183 ± 0.2942 h. Besides, the “λz (terminal phase rate constant)” value in data set [2] (plasma, mice, 10 mg/kg i.p.) is 0.0045 ± 0.0004 min⁻¹. Further, the “effect on spontaneous motor activity (number of movements in 60 min)” value in data set [3] (10 mg/kg i.p.) and in data set [3] (30 mg/kg i.p.) was “Neither of these doses affected the motility of the animals” in each case. In addition, the “influence on motor coordination” value in data set [4] (10 mg/kg) and in data set [4] (30 mg/kg) was “No negative influence” in each case. The “time kept on the bar” value in data set [4] (10 mg/kg and 30 mg/kg, speeds of 6, 18, and 24 rpm, all animals) amounted to 60 s.
